Publication PMC5365662, “A Short Double-Stapled Peptide Inhibits Respiratory Syncytial Virus Entry and Spreading” (Antimicrobial Agents and Chemotherapy, 2017)
Bridge positions count the residues as written; N and C are the ends. Square brackets hold non-standard residues; d marks the D form. Peptide text beside a SMILES is read from it. S5 = C=CCCC[C@](C)(N)C(=O)O

How the values were obtained:
[1] = Proteolytic stability assay, chymotrypsin; format: in vitro ADME; conditions: chymotrypsin (isolated protease); 10 μl peptide 0.29 mM in 990 μl 100 mM Tris-HCl pH 8.0, 10 mM CaCl2; 10 μl chymotrypsin 50 μg/ml; 25°C; LC-MS of intact peptide, exponential decay fit; 3 experiments
Method: (§1) This is an important parameter to assess for the development of peptide therapeutics. Peptides 4bb, 4ca, and 4a, and the unstapled analog peptide 4, as well as both SAH-RSVFBD isomers, were treated with chymotrypsin or trypsin, and the samples were analyzed by LC/MS to quantify the reaction products over time. […] In comparison, both SAH-RSVFBD isomers were more susceptible to proteolytic degradation, with half-lives of approximately 7 h and 5 min against chymotrypsin and trypsin, respectively.
(§2) In vitro proteolytic degradation was measured via LC-MS using an Agilent Infinity 1280 UHPLC system coupled to an Agilent quadrupole time of flight (QTOF) 6530 instrument with an Agilent Jet Stream electrospray ionization (AJS ESI) source (all from Agilent Technologies, Waldbronn, Germany). Five microliters of digested sample was injected onto a C18 column (Zorbax Eclipse Plus RRHD, 1.8 μm, 2.1 by 100 mm; Agilent Technologies, Waldbronn, Germany) equilibrated with solvent A (5% acetonitrile, 0.2% formic acid) and eluted with a flow rate of 0.4 ml/min over a 5 to 95% gradient of solvent B (95% acetonitrile, 0.2% formic acid) in 5 min, followed by 1.5 min at 95% and 0.5 min posttime. The AJS ESI source was operated with a capillary voltage of 4,000 V and a nozzle voltage of 600 V with a drying gas temperature of 325°C and flow rate of 10 liters/min, nebulizing gas pressure of 20 lb/in^2, and a sheath gas temperature of 300°C and flow rate of 11 liters/min. Mass spectra were acquired in the positive-ion mode from 100 to 3,200 m/z at a rate of 1 scan per second in extended dynamic range (2 GHz) mode. The fragmentor, skimmer, and octopole RF voltages were set to 200, 60, and 750 V, respectively. Data were acquired and analyzed with the Agilent MassHunter Workstation (version B.05).
(§3) Peptide digestion was performed as follows: 10 μl of peptide at 0.29 mM in 50:50 acetonitrile-water was dissolved in 990 μl 100 mM Tris-HCl (pH 8.0) with 10 mM CaCl2. Following measurement of the undigested (t0) sample, 10 μl of chymotrypsin at 50 μg/ml in 100 mM Tris-HCl (pH 8.0) with 10 mM CaCl2 was added, and the sample was vortexed and placed immediately in the autosampler, set to 25°C. The level of intact peptide was quantified by serial injection over time. Integration of the intact peptide compound chromatogram was performed using the Agilent Molecular Feature Extraction (MFE) algorithm. The value of the fit at t = 0 min was used to calculate the percentage of the intact peptide at each point as follows: Percent intact (t) = [Vol (t)/Volt0] × 100, where Vol is the total volume calculated using Find Compounds by Molecular Feature and Volt0 is the value of the fit at time t = 0. A plot of the intact peptide MFE peak area over time gave an exponential decay curve, from which the half-life was determined using MatLab […].

[2] = Proteolytic stability assay, trypsin; format: in vitro ADME; conditions: trypsin (isolated protease); 100 mM Tris-HCl pH 8.0, 10 mM CaCl2, 25°C; LC-MS of intact peptide, exponential decay fit; 3 experiments
Method: as §1, §2
as §3, with “Integration of the intact peptide compound chromatogram was performed using the Agilent Molecular Feature Extraction (MFE) algorithm.” left out

[3] = test system: rHRSV-mCherry in HEp-2 cells; experiment: rHRSV-mCherry inhibition assay; format: cell-based, human respiratory syncytial virus; conditions: HEp-2 cells
Summary of the method: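 HEp-2 cells infected at MOI 0.2 with rHRSV-mCherry preincubated 15–20 min with serially diluted peptide, peptide kept in 2% FBS medium for 48 h at 37°C. Replication read as mCherry fluorescence (ex 580/em 620 nm), normalized to untreated infected cells; duplicates, curves fitted.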

[4] = Far-UV circular dichroism, α-helical content; format: physicochemical; conditions: CD, 10 mM phosphate buffer pH 7.5, 50 μM peptide, 25°C
Method: The circular dichroism spectra were acquired on a Chirascan spectropolarimeter. The samples were prepared in 10 mM phosphate buffer, pH 7.5, at a peptide concentration of 50 μM. Data were recorded at 25°C by step scan from 180 nm to 260 nm in a 0.5-mm path length quartz cell using 1-nm wavelength increments and a response time of 1 s. The data were converted to per residue molar ellipticity units [θ] (degree per square centimeter per decimole per residue) and smoothed using the Igor Pro software. The percentage of helicity was calculated as described previously ([35]).

[5] = test system: recombinant GFP-expressing RSV (strain A2) in A549 cells; format: cell-based, human respiratory syncytial virus; conditions: cellular RSV-eGFP assay, data not shown
Method: A549 cells were infected with a recombinant green fluorescent protein (GFP)-expressing RSV (strain A2) ([23]), and the inhibitory activity of the peptide was quantified by flow cytometry.
Each peptide was diluted 3 times by 2-fold serial dilutions. eGFP RSV virus at an MOI of 0.5 was used for the infection, and GFP-positive cells were counted by FACS analysis 24 h p.i. The GFP data were normalized to the fluorescence values observed with virus only and plotted as percent inhibition.
Serial 4-fold dilutions of inhibitors were mixed with eGFP-encoding RSV virus ([23]) with a volume of virus required to achieve approximately 50% of infection in medium containing 2% fetal calf serum. The resulting mixture was added to 24-well plates containing A549 cells. Cells were incubated for 2 h at 37°C, the medium was replaced, and cells were incubated for an additional 24 h. Cells were treated with 300 μl of trypsin for 10 min at 37°C, and the detached cells were diluted in 1 ml of culture medium. Following centrifugation at 1,700 rpm, the pellet was resuspended in 300 μl of PBS–1% fetal bovine serum (FBS) (vol/vol) and GFP-positive cells were counted by fluorescence-activated cell sorter (FACS) analysis. The GFP data were normalized to the fluorescence value observed with virus only. The resulting inhibition curves were fitted in Igor Pro as described above.

RSV = conditions: cited from earlier work
Text: The RSV fusion glycoprotein (F) is the focus of active research in the field of vaccines, neutralizing antibodies, and small molecules. […] RSV F is a type I fusion protein that is activated into a metastable prefusion state upon cleavage by host proteases. The prefusion state contains a hydrophobic fusion peptide, ...

chymotrypsin = experiment: Proteolytic stability assay, chymotrypsin; format: in vitro ADME; conditions: treated with chymotrypsin or trypsin, LC/MS
Method: as §1, §2, §3

[6] = all solvents tested
[7] = RSV-Cherry MOI 0.2, peptide and virus removed after infection and fresh peptide added, mCherry fluorescence 48 h p.i., at least twice in duplicate

| Compound | half-life at 2.9 µM [1] [h] | half-life [2] [min] | EC50 [3, 7] [µM] | % Helicity ([4]; Table 2) [%] | % Helicity ([4]; Table 3 (Ala scan)) [%] | further results |
| --- | --- | --- | --- | --- | --- | --- |
| CC[C@H](C)[C@@H]1NC(=O)[C@H](CO)NC(=O)[C@](C)(NC(=O)[C@H](CC(=O)O)NC(=O)[C@H](Cc2ccccc2)NC(C)=O)CCCCCCC=CCCC[C@@](C)(C(=O)N[C@@H](CCCCN)C(=O)N[C@H](C(=O)N[C@@H](CC(N)=O)C(=O)N[C@@H](CCC(N)=O)C(=O)N[C@@H](CO)C(=O)N[C@@H](CC(C)C)C(=O)N[C@@H](C)C(=O)N[C@@H](Cc2ccccc2)C(=O)N[C@H](C(=O)N[C@]2(C)CCCCCCC=CCCC[C@@](C)(C(=O)N[C@@H](CC(N)=O)C(=O)N[C@H](C(=O)N[C@@H](CC(N)=O)C(=O)N[C@@H](C)C(=O)NCC(=O)N[C@@H](CCCCN)C(=O)N[C@@H](CO)C(=O)N[C@H](C(N)=O)[C@@H](C)O)C(C)C)NC(=O)[C@H](CC(C)C)NC(=O)[C@H](CC(C)C)NC(=O)[C@H](CCC(=O)O)NC(=O)[C@H](CC(=O)O)NC(=O)[C@H](CO)NC(=O)[C@H](CCCCN)NC2=O)[C@@H](C)CC)[C@@H](C)CC)NC(=O)[C@H](CC(N)=O)NC(=O)[C@H](C(C)C)NC(=O)[C@H](CCC(N)=O)NC(=O)[C@H](CO)NC1=O [RSV-SAHBD (E), reference compound] | 6.5 | 1.2 | – | – | – | – |
| CC[C@H](C)[C@H](NC(=O)[C@H](CCCCN)NC(=O)[C@H](CCC(=O)O)NC(C)=O)C(=O)N[C@@]1(C)CCCC=CCCC[C@@](C)(C(=O)N[C@@H](Cc2ccccc2)C(=O)N[C@H](C(=O)N[C@@]2(C)CCCC=CCCC[C@@](C)(C(=O)N[C@@H](CC(C)C)C(=O)N[C@@H](CC(C)C)C(=O)N[C@@H](Cc3c[nH]cn3)C(=O)N[C@@H](CC(N)=O)C(=O)N[C@H](C(N)=O)C(C)C)NC(=O)[C@H](CC(=O)O)NC(=O)[C@H](CO)NC(=O)[C@H](CCCCN)NC2=O)[C@@H](C)CC)NC(=O)[C@H](CC(C)C)NC(=O)[C@H](CO)NC(=O)[C@H](CCC(N)=O)NC1=O [Peptide 4bb] (Ac-EKI[S5]QSL[S5]FI[S5]KSD[S5]LLHNV-NH2; staple 4-8, 11-15) | 50.1 | 18 | 0.74 ± 0.27 | 48.1 | 53 | EC50 ([3]; Table 3 (Ala scan), rHRSV-mCherry MOI 0.2, 2-fold serial dilutions (11 dilutions), duplicate, ± SD of fit): 0.67 ± 0.07 µM |
| CC[C@H](C)[C@H](NC(=O)[C@H](CCCCN)NC(=O)[C@H](CCC(=O)O)NC(C)=O)C(=O)N[C@@H](CC(N)=O)C(=O)N[C@@H](CCC(N)=O)C(=O)N[C@@H](CO)C(=O)N[C@@H](CC(C)C)C(=O)N[C@@]1(C)CCCC=CCCC[C@@](C)(C(=O)N[C@@H](CO)C(=O)N[C@@H](CC(=O)O)C(=O)N[C@@]2(C)CCCC=CCCC[C@@](C)(C(=O)N[C@H](C(N)=O)C(C)C)NC(=O)[C@H](Cc3c[nH]cn3)NC(=O)[C@H](CC(C)C)NC(=O)[C@H](CC(C)C)NC2=O)NC(=O)[C@H](CCCNC(=N)N)NC(=O)[C@H]([C@@H](C)CC)NC(=O)[C@H](Cc2ccccc2)NC1=O [Peptide 4a] (Ac-EKINQSL[S5]FIR[S5]SD[S5]LLH[S5]V-NH2; staple 8-12, 15-19) | 74.7 | 78 | – | 23.5 | 64 | potency relative to hit peptide 3ac [5]: twice more potent |
| Cc1cn2nc([C@@H]3CCCCN3C(=O)c3cc(Cl)ccc3NS(C)(=O)=O)cc2nc1N1CC[C@H](N)C1 [GS-5806] | – | – | – | – | – | EC50 (RSV): 0.0004 µM |
| CC[C@H](C)[C@H](NC(=O)[C@H](Cc1ccccc1)NC(=O)[C@H](C)NC(=O)[C@H](CC(C)C)NC(=O)[C@H](CO)NC(=O)[C@H](CCC(N)=O)NC(=O)[C@H](CC(N)=O)NC(=O)[C@@H](NC(=O)[C@H](CCCCN)NC(=O)[C@H](CCC(=O)O)NC(C)=O)[C@@H](C)CC)C(=O)N[C@@H](CCCNC(=N)N)C(=O)N[C@@H](CCCCN)C(=O)N[C@@H](CO)C(=O)N[C@@H](CC(=O)O)C(=O)N[C@@H](CCC(=O)O)C(=O)N[C@@H](CC(C)C)C(=O)N[C@@H](CC(C)C)C(=O)N[C@@H](Cc1c[nH]cn1)C(=O)N[C@@H](CC(N)=O)C(=O)N[C@H](C(N)=O)C(C)C [Peptide 4] (Ac-EKINQSLAFIRKSDELLHNV-NH2) | 0.08 | 4.8 | > 50 | – | – | time to full degradation (chymotrypsin): ≤ 10 min |
| CC[C@H](C)[C@H](NC(=O)[C@H](Cc1ccccc1)NC(=O)[C@H](C)NC(=O)[C@H](CC(C)C)NC(=O)[C@H](CO)NC(=O)[C@H](CCC(N)=O)NC(=O)[C@H](CC(N)=O)NC(=O)[C@@H](NC(=O)[C@H](CCCCN)NC(=O)[C@H](CCC(=O)O)NC(=O)[C@H](CC(N)=O)NC(=O)[C@@H](NC(=O)[C@H](CCC(N)=O)NC(=O)[C@H](CO)NC(=O)[C@@H](NC(=O)[C@H](CCC(=O)O)NC(C)=O)[C@@H](C)CC)C(C)C)[C@@H](C)CC)C(=O)N[C@@H](CCCNC(=N)N)C(N)=O [Peptide 2] (Ac-EISQVNEKINQSLAFIR-NH2) | – | – | – | – | – | solubility [6]: insoluble in all solvents tested |
